Read-outs that look alike come from different tables or passages of the source.
Tests used:
KMT9 [1] = biological target: T1, KMT9 (Homo sapiens, UniProt Q9Y5N5); experiment: KMT9 methyltransferase inhibition assay, MTaseGlo luminescence (from entry 155); format: biochemical; details: 100 nM KMT9, 5 μM ETF1, 1 μM SAM
T1 sequence (Q9Y5N5 1-214): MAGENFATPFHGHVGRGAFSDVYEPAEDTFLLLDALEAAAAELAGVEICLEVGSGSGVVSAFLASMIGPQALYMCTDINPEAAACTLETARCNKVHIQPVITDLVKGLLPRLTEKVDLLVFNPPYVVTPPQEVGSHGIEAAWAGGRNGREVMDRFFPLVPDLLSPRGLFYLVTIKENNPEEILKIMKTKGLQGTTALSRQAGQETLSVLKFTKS
T1 sequence (Q9UI30 1-120 isoform Q9UI30-2 partner): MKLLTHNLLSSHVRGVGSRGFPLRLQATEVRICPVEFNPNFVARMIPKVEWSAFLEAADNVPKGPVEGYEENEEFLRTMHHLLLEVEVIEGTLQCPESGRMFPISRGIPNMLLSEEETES
How it was run: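 KMT9 (100 nM final) pre-incubated with inhibitor for 15 min at room temperature, then reacted with 5 μM ETF1 and 1 μM SAM for 2 h at 30° C. at 2% DMSO final. MTaseGlo luminescence read after 60 min detection; IC50 reported in four potency bins.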

KMT9 [2] = biological target: T1, KMT9; experiment: Microscale thermophoresis (MST) KMT9 binding; details: His-tag labelled KMT9 20 nM
How it was run: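 His-tagged KMT9 (20 nM), RED-Tris-NTA labelled, titrated with varying compound concentrations in 25 mM HEPES pH 7.5, 100 mM NaCl, 1 mM DTT, 0.05% Tween. MST at 40% MST and 100% LED power, Nano-RED excitation; Kd binned A ≤10 nM, B 10–100, C 100–1000, D >1000 nM.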

KMT9 [3] = biological target: T1, KMT9; experiment: KMT9 thermal shift assay (SyproOrange); format: binding; details: 2 μM KMT9
How it was run: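 Recombinant KMT9 was incubated with compound and SyproOrange at 25° C in 50 mM BTP pH 8.5, 1 mM MgCl2, 1 mM DTT. It was then heated from 20° C to 95° C at 1° C per 15 s with fluorescence read each step. Tm came from a Boltzmann sigmoidal fit; ΔTm relative to DMSO control, binned in 5 K ranges.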

[4] = MTaseGlo procedure (entries from 155), read-out: Inhibition (IC50)
[5] = 500 µM compound, read-out: Thermal shift (ΔTm)
[6] = IC50 class, MTaseGlo procedure (entries from 155 on), read-out: Inhibition
[7] = ΔTm class, 500 uM compound, read-out: Thermal shift

| SMILES | IC50 (KMT9 [1]; [4]) | Kd (KMT9 [2]; read-out: MST (Kd)) | ΔTm at 500 µM (KMT9 [3]; [5]) | IC50 (KMT9 [1]; [6]) | Kd (KMT9 [2]; Kd class, read-out: MST) | ΔTm at 500 µM (KMT9 [3]; [7]) |
| --- | --- | --- | --- | --- | --- | --- |
| Nc1nc(Cl)nc2c1c(-c1nc(Cc3ccccc3)cs1)cn2[C@@H]1C[C@H](C2CCN(Cc3ccco3)CC2)[C@@H](O)[C@H]1O [Compound 525, (1R,2S,3R,5R)-3-(4-amino-5-(4-benzylthiazol-2-yl)-2-chloro-7H-pyrrolo[2,3-d]pyrimidin-7-yl)-5-(1-(furan-2-ylmethyl)piperidin-4-yl)cyclopentane-1,2-diol] | 1000 to 10000 nM | ≤ 10 nM | 15 to 20 °C |  |  |  |
| Nc1nc(Cl)nc2c1c(-c1nc(Cc3ccccc3)cs1)cn2[C@@H]1C[C@H](C2CCN(Cc3cccs3)CC2)[C@@H](O)[C@H]1O [Compound 526, (1R,2S,3R,5R)-3-(4-amino-5-(4-benzylthiazol-2-yl)-2-chloro-7H-pyrrolo[2,3-d]pyrimidin-7-yl)-5-(1-(thiophen-2-ylmethyl)piperidin-4-yl)cyclopentane-1,2-diol] | 100 to 1000 nM | ≤ 10 nM | 15 to 20 °C |  |  |  |
| Nc1nc(Cl)nc2c1c(-c1nc(Cc3ccccc3)cs1)cn2[C@@H]1C[C@H](C2CCN(Cc3ccncc3)CC2)[C@@H](O)[C@H]1O [Compound 527, (1R,2S,3R,5R)-3-(4-amino-5-(4-benzylthiazol-2-yl)-2-chloro-7H-pyrrolo[2,3-d]pyrimidin-7-yl)-5-(1-(pyridin-4-ylmethyl)piperidin-4-yl)cyclopentane-1,2-diol] | 1000 to 10000 nM | 10 to 100 nM | 10 to 15 °C |  |  |  |
| Nc1nc(Cl)nc2c1c(Br)cn2[C@@H]1C[C@H](CN(CCCNCCc2ccc(F)cc2)c2cn[nH]c2)[C@@H](O)[C@H]1O [Compound 538, (1R,2S,3R,5R)-3-(4-amino-5-bromo-2-chloro-7H-pyrrolo[2,3-d]pyrimidin-7-yl)-5-(((3-((4-fluorophenethyl)amino)propyl)(1H-pyrazol-4-yl)amino)methyl)cyclopentane-1,2-diol] | 100 to 1000 nM | ≤ 10 nM | 15 to 20 °C |  |  |  |
| CNc1nc(Cl)nc2c1ccn2[C@@H]1C[C@H](CNCCCNCCc2cccc(Oc3ccccc3)c2)[C@@H](O)[C@H]1O [Compound 555, (1R,2S,3R,5R)-3-(2-chloro-4-(methylamino)-7H-pyrrolo[2,3-d]pyrimidin-7-yl)-5-(((3-((3-phenoxyphenethyl)amino)propyl)amino)methyl)cyclopentane-1,2-diol] | 100 to 1000 nM | 10 to 100 nM | 15 to 20 °C |  |  |  |
| Nc1nc(Cl)nc2c1c(-c1ccccc1)cn2[C@@H]1C[C@H](CNCCCNCCc2cccc(Oc3ccccc3)c2)[C@@H](O)[C@H]1O [Compound 564, (1R,2S,3R,5R)-3-(4-amino-2-chloro-5-phenyl-7//pyrrolo[2,3-d]pyrimidin-7-yl)-5-(((3-((3-phenoxyphenethyl)amino)propyl)amino)methyl)cyclopentane-1,2-diol] | 1000 to 10000 nM | 10 to 100 nM | > 20 °C |  |  |  |
| Nc1nc(Cl)nc2c1c(-c1ccccc1)cn2[C@@H]1C[C@H](CNCCCNCCc2ccc(F)cc2)[C@@H](O)[C@H]1O [Compound 566, (1R,2S,3R,5R)-3-(4-amino-2-chloro-5-phenyl-7/pyrrolo[2,3-d]pyrimidin-7-yl)-5-(( (3-((4-fluorophenethyl)amino)propyl)amino)methyl)cyclopentane-1,2-diol] |  |  |  | 100 to 1000 nM | ≤ 10 nM | > 20 °C |
| CCN(CCCNCCc1ccc(F)cc1)C[C@H]1C[C@@H](n2cc(-c3ccccc3)c3c(N)nc(Cl)nc32)[C@H](O)[C@@H]1O [Compound 568, (1R,2S,3R,5R)-3-(4-amino-2-chloro-5-phenyl-7//-pyrrolo[2,3-d]pyrimidin-7-yl)-5-((ethyl(3-((4-fluorophenethyl)amino)propyl)amino)methyl)cyclopentane-1,2-diol] |  |  |  | 100 to 1000 nM | 10 to 100 nM | > 20 °C |
| CN(CCCNCCc1ccc(F)cc1)C[C@H]1C[C@@H](n2cc(-c3ccccc3)c3c(N)nc(Cl)nc32)[C@H](O)[C@@H]1O [Compound 575, (1R,2S,3R,5R)-3-(4-amino-2-chloro-5-phenyl-7H-pyrrolo[2,3-d]pyrimidin-7-yl)-5-(((3-((4-fluorophenethyl)amino)propyl)(methyl)amino)methyl)cyclopentane-1,2-diol] | 100 to 1000 nM | ≤ 10 nM | 15 to 20 °C |  |  |  |
| Nc1nc(Cl)nc2c1ccn2[C@@H]1C[C@H](c2cn[nH]c2)[C@@H](O)[C@H]1O [Compound 582, (1R,2S,3R,5R)-3-{4-Amino-2-chloropyrrolo[2,3-d]pyrimidin-7-yl}-5-(1H-pyrazol-4-yl)cyclopentane-1,2-diol] | 1000 to 10000 nM | 100 to 1000 nM | ≤ 10 °C |  |  |  |
| CNc1nc(Cl)nc2c1ccn2[C@@H]1C[C@H](c2cn[nH]c2)[C@@H](O)[C@H]1O [Compound 583, (1R,2S,3R,5R)-3-[2-chloro-4-(methylamino)pyrrolo[2,3-d]pyrimidin-7-yl]-5-(1H-pyrazol-4-yl)cyclopentane-1,2-diol] | > 10000 nM | > 1000 nM | ≤ 10 °C |  |  |  |
| Nc1nc(Cl)nc2c1ccn2[C@@H]1C[C@H](c2cnn(CCc3ccccc3)c2)[C@@H](O)[C@H]1O [Compound 584, (1R,2S,3R,5R)-3-(4-Amino-2-chloro-7H-pyrrolo[2,3-d]pyrimidin-7-yl)-5-(1-phenethyl-1H-pyrazol-4-yl)cyclopentane-1,2-diol] | > 10000 nM | > 1000 nM | ≤ 10 °C |  |  |  |
| CN1CCC=C([C@H]2C[C@@H](n3cc(-c4nc(Cc5ccccc5)cs4)c4cnc(Cl)nc43)[C@H](O)[C@@H]2O)C1 [Compound 585, (1R,2S,3R,5R)-3-[5-(4-Benzyl-1,3-thiazol-2-yl)-2-chloropyrrolo[2,3-d]pyrimidin-7-yl]-5-(1-methyl-5,6-dihydro-2H-pyridin-3-yl)cyclopentane-1,2-diol] |  |  |  | 1000 to 10000 nM | 100 to 1000 nM | 10 to 15 °C |
| O[C@@H]1[C@H](O)[C@@H](C2=CCCN(CC3CC3)C2)C[C@H]1n1cc(-c2nc(Cc3ccccc3)cs2)c2cnc(Cl)nc21 [Compound 586, (1R,2S,3R,5R)-3-[5-(4-Benzyl-1,3-thiazol-2-yl)-2-chloropyrrolo[2,3-d]pyrimidin-7-yl]-5-[1-(cyclopropylmethyl)-5,6-dihydro-2H-pyridin-3-yl]cyclopentane-1,2-diol] |  |  |  | 1000 to 10000 nM | 100 to 1000 nM | ≤ 10 °C |
| O[C@@H]1[C@H](O)[C@@H](C2=CCCN(C3CC3)C2)C[C@H]1n1cc(-c2nc(Cc3ccccc3)cs2)c2cnc(Cl)nc21 [Compound 587, (1R,2S,3R,5R)-3-[5-(4-Benzyl-1,3-thiazol-2-yl)-2-chloropyrrolo[2,3-d]pyrimidin-7-yl]-5-(1-cyclopropyl-5,6-dihydro-2H-pyridin-3-yl)cyclopentane-1,2-diol] |  |  |  | > 10000 nM | > 1000 nM | ≤ 10 °C |
| O[C@@H]1[C@H](O)[C@@H](C2=CCCN(CCc3ccccc3)C2)C[C@H]1n1cc(-c2nc(Cc3ccccc3)cs2)c2cnc(Cl)nc21 [Compound 588, (1R,2S,3R,5R)-3-[5-(4-Benzyl-1,3-thiazol-2-yl)-2-chloropyrrolo[2,3-d]pyrimidin-7-yl]-5-[1-(2-phenylethyl)-5,6-dihydro-2H-pyridin-3-yl]cyclopentane-1,2-diol] |  |  |  | > 10000 nM | > 1000 nM | ≤ 10 °C |
| Nc1ncnc2c1c(-c1nc(Cc3ccccc3)cs1)cn2[C@@H]1C[C@H]([C@H]2CCNC2)[C@@H](O)[C@H]1O [Compound 589R, (1R,2S,3R,5R)-3-[4-Amino-5-(4-benzyl-1,3-thiazol-2-yl)pyrrolo[2,3-d]pyrimidin-7-yl]-5-[(3R)-pyrrolidin-3-yl]cyclopentane-1,2-diol] |  |  |  | 1000 to 10000 nM | 100 to 1000 nM | 10 to 15 °C |
| Nc1ncnc2c1c(-c1nc(Cc3ccccc3)cs1)cn2[C@@H]1C[C@H]([C@@H]2CCNC2)[C@@H](O)[C@H]1O [Compound 589S, (1R,2S,3R,5R)-3-[4-Amino-5-(4-benzyl-1,3-thiazol-2-yl)pyrrolo[2,3-d]pyrimidin-7-yl]-5-[(3S)-pyrrolidin-3-yl]cyclopentane-1,2-diol] |  |  |  | 1000 to 10000 nM | 100 to 1000 nM | 10 to 15 °C |
| Nc1nc(Cl)nc2c1ccn2[C@@H]1C[C@H](c2ccc(=O)[nH]c2)[C@@H](O)[C@H]1O [Compound 590, 5-[(1R,2R,3S,4R)-4-{4-Amino-2-chloropyrrolo[2,3-d]pyrimidin-7-yl}-2,3-dihydroxycyclopentyl]-1H-pyridin-2-one] | 1000 to 10000 nM | 100 to 1000 nM | ≤ 10 °C |  |  |  |

Source: patent publication US20250188110A1, “SPECIFIC SMALL MOLECULE INHIBITORS THAT BLOCK KMT9 METHYLTRANSFERASE ACTIVITY AND FUNCTION” (ALBERT-LUDWIGS-UNIVERSITÄT FREIBURG, priority 2021, published 2025)
